Read-outs that look alike come from different tables or passages of the source.
Experiments:
[1] = target: DAPK1 (Homo sapiens, UniProt P53355); assay: Kinome profiling DAPK1; assay type: biochemical; details: read-out: Inhibitory activity DAPK1; for inhibition at 0.1 µM: 100 nM
Procedure: (§1) . The kinome-wide selectivity was determined following the methods previously reported by Mohedas et al., ACS Chem Biol 2013, 8, 1291-1302 and Sanvitale et al., PLoS One 2013, 8, e62721.

[2] = target: DYRK1B (Homo sapiens, UniProt Q9Y463); assay: Kinome profiling DYRK1B; assay type: biochemical; details: read-out: Inhibitory activity DYRK1B; for inhibition at 0.1 µM: 100 nM
Procedure: as §1

[3] = target: FGFR2 (Homo sapiens, UniProt P21802); assay: Kinome profiling FGFR2; assay type: biochemical; details: read-out: Inhibitory activity FGFR2; for inhibition at 0.1 µM: 100 nM
Procedure: as §1

[4] = target: BLK (Homo sapiens, UniProt P51451); assay: Kinome profiling BLK; assay type: biochemical; details: read-out: Inhibitory activity BLK; for inhibition at 0.1 µM: 100 nM
Procedure: as §1

[5] = target: T1, PDK1 (Homo sapiens, UniProt O15530); assay: Kinome profiling PDK1; assay type: biochemical; details: read-out: Inhibitory activity PDK1; for inhibition at 0.1 µM: 100 nM
T1 sequence (O15530 1-556): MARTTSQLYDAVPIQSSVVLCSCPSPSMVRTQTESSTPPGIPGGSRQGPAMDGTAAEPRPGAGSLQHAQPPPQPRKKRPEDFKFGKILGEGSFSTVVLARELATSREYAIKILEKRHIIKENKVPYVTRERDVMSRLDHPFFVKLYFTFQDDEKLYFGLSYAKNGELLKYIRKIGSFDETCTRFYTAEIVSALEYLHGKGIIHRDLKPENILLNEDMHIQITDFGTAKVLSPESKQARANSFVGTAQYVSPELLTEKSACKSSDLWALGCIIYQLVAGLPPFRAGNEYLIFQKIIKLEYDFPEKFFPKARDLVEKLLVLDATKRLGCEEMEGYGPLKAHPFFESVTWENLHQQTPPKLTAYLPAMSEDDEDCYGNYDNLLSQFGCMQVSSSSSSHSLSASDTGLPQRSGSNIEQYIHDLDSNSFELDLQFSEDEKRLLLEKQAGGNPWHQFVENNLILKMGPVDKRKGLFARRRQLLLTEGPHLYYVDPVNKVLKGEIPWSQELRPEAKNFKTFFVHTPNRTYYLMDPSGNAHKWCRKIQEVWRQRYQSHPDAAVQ
Procedure: as §1

[6] = target: T2, ALK5 (Homo sapiens, UniProt P36897); assay: Thermal shift kinase assay ALK5; assay type: binding; details: for ΔTm at 10 µM: 10 μM inhibitor; for ΔT ALK5: Table 6
T2 construct: made in house
T2 sequence (P36897 34-503): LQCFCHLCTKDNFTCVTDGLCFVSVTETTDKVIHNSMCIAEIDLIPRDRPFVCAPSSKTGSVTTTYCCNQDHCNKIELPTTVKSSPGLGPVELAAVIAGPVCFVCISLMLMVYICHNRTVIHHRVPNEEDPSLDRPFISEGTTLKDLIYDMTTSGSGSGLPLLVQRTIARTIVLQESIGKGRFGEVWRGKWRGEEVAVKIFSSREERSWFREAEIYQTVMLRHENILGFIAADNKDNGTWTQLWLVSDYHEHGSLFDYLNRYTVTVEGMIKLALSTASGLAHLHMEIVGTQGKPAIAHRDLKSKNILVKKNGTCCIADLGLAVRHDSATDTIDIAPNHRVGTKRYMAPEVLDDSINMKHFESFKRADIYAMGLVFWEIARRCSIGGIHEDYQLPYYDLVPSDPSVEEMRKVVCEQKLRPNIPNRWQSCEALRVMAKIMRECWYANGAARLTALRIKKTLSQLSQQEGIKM
Procedure: Thermal melting experiments were performed using a Real Time PCR machine Mx3005p (Stratagene) with a protein concentration of 1-2 μM and 10 μM inhibitor as described by Niesen et al., Nat Protoc 2007, 2, 2212-21. Recombinant human kinases for DSF screening were prepared by SGC using the published methods of Sanvitale et al., PLoS One 2013, 8, e62721. The potency and selectivity of certain compounds of the invention based on thermal shift kinase and ligand induced transcriptional activity assays are shown in Table 2.

[7] = target: KIT (Homo sapiens, UniProt P10721); assay: Kinome profiling KIT; assay type: biochemical; details: read-out: Inhibitory activity KIT; for inhibition at 0.1 µM: 100 nM
Procedure: as §1

[8] = target: CLK2 (Homo sapiens, UniProt P49760); assay: Kinome profiling CLK2; assay type: biochemical; details: read-out: Inhibitory activity CLK2; for inhibition at 0.1 µM: 100 nM
Procedure: as §1

[9] = target: T3, SPHK2 (Homo sapiens, UniProt Q9NRA0); assay: Kinome profiling SPHK2; assay type: biochemical; details: read-out: Inhibitory activity SPHK2; for inhibition at 0.1 µM: 100 nM
T3 sequence (Q9NRA0 1-654): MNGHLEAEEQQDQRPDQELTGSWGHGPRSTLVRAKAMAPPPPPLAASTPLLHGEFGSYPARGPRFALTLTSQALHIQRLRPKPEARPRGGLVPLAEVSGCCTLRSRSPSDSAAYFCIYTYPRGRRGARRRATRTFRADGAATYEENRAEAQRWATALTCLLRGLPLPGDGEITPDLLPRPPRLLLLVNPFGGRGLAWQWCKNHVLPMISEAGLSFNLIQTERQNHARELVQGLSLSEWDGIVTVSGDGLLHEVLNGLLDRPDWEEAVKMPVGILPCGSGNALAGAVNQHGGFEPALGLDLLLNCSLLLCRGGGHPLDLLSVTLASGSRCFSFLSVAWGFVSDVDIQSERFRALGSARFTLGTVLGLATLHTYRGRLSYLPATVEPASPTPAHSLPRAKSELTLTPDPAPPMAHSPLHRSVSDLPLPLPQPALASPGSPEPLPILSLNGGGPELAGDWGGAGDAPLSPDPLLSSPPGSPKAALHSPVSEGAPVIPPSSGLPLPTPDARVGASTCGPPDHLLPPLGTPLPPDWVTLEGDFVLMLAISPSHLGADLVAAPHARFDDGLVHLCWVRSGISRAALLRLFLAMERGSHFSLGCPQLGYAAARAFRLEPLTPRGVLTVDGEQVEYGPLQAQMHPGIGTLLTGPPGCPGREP
Procedure: as §1

[10] = target: CDK6/cyclinD3 (Homo sapiens, UniProt Q00534); assay: Kinome profiling CDK6/cyclinD3; assay type: biochemical; details: read-out: Inhibitory activity CDK6/cyclinD3; for inhibition at 0.1 µM: 100 nM
Procedure: as §1

[11] = target: LCK (Homo sapiens, UniProt P06239); assay: Kinome profiling LCK; assay type: biochemical; details: for inhibition at 0.1 µM: 100 nM
Procedure: as §1

[12] = Table 4, read-out: Inhibitory Activity LCK
[13] = read-out: Inhibitory activity LCK

Sequence of KIT (P10721 26-976): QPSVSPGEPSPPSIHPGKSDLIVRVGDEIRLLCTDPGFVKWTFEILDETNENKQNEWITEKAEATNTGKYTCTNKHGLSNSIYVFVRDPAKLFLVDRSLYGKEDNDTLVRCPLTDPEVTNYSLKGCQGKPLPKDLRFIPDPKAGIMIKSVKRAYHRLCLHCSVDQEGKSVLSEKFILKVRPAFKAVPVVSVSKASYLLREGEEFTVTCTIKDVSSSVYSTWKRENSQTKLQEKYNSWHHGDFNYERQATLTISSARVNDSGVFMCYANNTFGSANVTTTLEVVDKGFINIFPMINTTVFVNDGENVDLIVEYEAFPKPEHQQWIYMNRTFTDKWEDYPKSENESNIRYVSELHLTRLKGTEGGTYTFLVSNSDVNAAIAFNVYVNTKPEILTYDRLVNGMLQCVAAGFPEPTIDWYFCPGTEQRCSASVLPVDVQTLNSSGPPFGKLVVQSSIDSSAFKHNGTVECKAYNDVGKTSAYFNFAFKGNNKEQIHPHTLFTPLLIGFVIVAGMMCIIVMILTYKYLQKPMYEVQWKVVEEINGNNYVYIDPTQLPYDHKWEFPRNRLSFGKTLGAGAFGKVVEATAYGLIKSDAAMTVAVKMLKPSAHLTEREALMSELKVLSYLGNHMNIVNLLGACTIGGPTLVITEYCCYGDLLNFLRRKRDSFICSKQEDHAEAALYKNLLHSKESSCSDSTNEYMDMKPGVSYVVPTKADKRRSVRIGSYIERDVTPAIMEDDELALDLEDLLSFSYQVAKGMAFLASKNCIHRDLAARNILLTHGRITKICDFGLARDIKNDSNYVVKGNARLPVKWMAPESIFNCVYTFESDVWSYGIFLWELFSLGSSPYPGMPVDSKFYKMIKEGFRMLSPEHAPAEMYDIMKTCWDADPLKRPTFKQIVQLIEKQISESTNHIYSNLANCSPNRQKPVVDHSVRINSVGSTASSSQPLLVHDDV
Sequence of FGFR2 (P21802 22-821): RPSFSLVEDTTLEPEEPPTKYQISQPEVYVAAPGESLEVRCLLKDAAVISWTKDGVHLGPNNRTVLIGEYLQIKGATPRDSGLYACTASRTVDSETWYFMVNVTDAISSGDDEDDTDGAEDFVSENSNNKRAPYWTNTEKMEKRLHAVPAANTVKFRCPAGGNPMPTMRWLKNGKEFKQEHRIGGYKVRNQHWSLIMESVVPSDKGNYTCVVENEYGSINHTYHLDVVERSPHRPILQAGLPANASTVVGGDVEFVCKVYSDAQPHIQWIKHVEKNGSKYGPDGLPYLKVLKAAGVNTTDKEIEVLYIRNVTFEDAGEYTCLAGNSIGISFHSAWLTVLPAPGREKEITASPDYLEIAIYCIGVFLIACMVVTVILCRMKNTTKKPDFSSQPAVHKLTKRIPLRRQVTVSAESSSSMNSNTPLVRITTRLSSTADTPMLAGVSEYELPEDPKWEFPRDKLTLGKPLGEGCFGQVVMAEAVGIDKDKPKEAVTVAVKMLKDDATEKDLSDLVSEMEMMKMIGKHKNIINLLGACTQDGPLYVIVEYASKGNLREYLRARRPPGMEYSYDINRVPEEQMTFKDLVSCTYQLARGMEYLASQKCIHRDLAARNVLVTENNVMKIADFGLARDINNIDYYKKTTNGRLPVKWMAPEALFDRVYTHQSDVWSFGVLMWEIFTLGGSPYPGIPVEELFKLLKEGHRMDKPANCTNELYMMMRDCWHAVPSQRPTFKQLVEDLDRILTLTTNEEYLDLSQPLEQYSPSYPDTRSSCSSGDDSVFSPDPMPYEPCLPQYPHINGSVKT
Sequence of CDK6/cyclinD3 (Q00534 whole entry): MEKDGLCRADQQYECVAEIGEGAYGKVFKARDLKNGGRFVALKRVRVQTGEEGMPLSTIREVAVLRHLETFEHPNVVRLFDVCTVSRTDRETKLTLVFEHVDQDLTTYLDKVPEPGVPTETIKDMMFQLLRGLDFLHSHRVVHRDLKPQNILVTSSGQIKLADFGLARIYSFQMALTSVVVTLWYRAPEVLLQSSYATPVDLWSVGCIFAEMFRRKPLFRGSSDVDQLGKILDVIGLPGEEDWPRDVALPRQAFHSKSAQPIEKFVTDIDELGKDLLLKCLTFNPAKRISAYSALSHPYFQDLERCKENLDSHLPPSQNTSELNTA
Sequence of CDK6/cyclinD3 (P30281 whole entry partner): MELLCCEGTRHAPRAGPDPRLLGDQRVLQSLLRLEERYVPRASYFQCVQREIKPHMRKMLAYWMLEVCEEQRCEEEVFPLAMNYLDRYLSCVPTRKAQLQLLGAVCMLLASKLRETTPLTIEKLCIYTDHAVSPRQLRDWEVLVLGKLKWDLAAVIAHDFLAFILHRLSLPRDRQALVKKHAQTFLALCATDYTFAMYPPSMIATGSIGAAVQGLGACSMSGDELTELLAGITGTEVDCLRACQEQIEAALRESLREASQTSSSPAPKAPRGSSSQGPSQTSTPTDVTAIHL
Sequence of CLK2 (P49760 whole entry): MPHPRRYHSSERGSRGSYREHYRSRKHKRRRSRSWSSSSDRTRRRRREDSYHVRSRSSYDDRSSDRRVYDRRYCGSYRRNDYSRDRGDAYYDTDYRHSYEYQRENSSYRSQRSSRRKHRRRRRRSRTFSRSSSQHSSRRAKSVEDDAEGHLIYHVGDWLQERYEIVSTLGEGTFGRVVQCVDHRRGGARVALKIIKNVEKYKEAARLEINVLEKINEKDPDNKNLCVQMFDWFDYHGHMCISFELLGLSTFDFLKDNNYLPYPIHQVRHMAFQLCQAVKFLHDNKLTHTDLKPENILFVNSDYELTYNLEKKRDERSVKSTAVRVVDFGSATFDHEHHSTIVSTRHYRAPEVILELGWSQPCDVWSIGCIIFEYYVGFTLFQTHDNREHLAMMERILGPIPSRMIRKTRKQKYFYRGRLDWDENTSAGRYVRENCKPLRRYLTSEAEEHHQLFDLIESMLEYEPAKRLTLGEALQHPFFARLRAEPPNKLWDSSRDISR
Sequence of DAPK1 (P53355 whole entry): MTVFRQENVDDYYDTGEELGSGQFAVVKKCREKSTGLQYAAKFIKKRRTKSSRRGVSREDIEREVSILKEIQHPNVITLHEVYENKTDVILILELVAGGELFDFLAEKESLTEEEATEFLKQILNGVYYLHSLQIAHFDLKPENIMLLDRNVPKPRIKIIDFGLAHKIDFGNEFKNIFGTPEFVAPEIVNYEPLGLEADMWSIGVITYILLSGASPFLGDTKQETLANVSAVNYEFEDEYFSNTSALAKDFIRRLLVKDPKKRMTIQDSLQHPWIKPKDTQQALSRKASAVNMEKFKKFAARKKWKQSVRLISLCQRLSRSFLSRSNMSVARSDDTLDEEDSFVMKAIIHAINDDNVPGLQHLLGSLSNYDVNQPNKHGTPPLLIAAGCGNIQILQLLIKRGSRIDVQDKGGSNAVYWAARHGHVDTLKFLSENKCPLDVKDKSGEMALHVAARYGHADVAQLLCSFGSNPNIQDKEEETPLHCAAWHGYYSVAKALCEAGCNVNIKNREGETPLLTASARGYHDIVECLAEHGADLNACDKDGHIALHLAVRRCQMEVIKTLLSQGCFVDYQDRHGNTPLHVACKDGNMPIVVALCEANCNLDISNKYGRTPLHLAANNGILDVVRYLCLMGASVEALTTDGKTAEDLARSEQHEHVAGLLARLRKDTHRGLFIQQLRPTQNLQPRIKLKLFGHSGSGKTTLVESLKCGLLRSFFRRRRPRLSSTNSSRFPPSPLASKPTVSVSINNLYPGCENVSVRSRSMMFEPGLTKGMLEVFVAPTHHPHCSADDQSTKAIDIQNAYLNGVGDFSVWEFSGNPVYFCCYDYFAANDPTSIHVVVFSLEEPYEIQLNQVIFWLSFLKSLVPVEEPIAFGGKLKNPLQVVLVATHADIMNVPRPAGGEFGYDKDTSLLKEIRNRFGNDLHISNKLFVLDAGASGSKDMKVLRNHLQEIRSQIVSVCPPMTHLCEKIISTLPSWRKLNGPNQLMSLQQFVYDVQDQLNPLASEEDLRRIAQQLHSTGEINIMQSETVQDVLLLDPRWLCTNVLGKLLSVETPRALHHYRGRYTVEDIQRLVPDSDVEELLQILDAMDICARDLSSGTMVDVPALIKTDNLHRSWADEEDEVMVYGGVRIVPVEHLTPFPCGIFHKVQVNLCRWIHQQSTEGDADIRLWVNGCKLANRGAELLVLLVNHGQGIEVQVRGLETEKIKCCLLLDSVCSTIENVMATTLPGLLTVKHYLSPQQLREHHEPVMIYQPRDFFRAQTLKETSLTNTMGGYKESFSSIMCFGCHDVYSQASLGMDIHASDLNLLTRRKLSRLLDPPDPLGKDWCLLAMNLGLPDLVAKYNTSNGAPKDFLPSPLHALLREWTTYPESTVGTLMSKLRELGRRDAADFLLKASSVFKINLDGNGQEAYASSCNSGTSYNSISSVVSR
Sequence of LCK (P06239 whole entry): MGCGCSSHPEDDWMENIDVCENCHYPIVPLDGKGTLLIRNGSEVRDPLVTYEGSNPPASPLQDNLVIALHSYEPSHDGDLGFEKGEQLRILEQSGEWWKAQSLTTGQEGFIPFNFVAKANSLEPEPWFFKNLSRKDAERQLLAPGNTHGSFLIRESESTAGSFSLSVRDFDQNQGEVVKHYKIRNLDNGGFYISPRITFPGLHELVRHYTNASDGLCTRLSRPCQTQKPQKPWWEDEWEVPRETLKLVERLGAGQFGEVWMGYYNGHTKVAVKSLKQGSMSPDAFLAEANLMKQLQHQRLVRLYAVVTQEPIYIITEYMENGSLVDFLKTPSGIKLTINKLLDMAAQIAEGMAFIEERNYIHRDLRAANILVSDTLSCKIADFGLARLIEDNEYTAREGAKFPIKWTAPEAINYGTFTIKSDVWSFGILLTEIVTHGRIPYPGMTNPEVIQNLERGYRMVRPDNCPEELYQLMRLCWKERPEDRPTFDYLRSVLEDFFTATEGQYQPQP

COc1cc(-c2cc(-c3ccc(N4CCNCC4)cc3)cnc2C)cc(OC)c1OC [Compound 10, 1-(4-(6-methyl-5-(3,4,5-trimethoxyphenyl)pyridin-3-yl)phenyl)piperazine]
inhibition at 0.1 µM [1]: -1%
inhibition at 1 µM [1]: -1%
inhibition at 0.1 µM [2]: 2%
inhibition at 1 µM [2]: 5%
inhibition at 0.1 µM [3]: -1%
inhibition at 1 µM [3]: 0%
inhibition at 0.1 µM [4]: 1%
inhibition at 1 µM [4]: 12%
inhibition at 0.1 µM [5]: 3%
inhibition at 1 µM [5]: 6%
ΔTm at 10 µM [6]: 9.7 °C
ΔT ALK5 [6]: 9.7 °C
inhibition at 0.1 µM [7]: 5%
inhibition at 1 µM [7]: 12%
inhibition at 0.1 µM [8]: 2%
inhibition at 1 µM [8]: 2%
inhibition at 0.1 µM [9]: 13%
inhibition at 1 µM [9]: 5%
inhibition at 0.1 µM [10]: 3%
inhibition at 1 µM [10]: 1%
inhibition at 0.1 µM [11, 12]: 21%
inhibition at 0.1 µM [11, 13]: 21%
inhibition at 1 µM [11, 12]: 65%
inhibition at 1 µM [11, 13]: 65%

COc1cc(-c2cc(-c3ccc(N4CCNCC4)cc3)cnc2N)cc(OC)c1OC [Compound 15, 5-(4-(piperazin-1-yl)phenyl)-3-(3,4,5-trimethoxyphenyl)pyridin-2-amine]
inhibition at 0.1 µM [1]: 1%
inhibition at 1 µM [1]: 0%
inhibition at 0.1 µM [2]: -1%
inhibition at 1 µM [2]: 4%
inhibition at 0.1 µM [3]: 2%
inhibition at 1 µM [3]: 5%
inhibition at 0.1 µM [4]: 16%
inhibition at 1 µM [4]: 64%
inhibition at 0.1 µM [5]: 3%
inhibition at 1 µM [5]: 3%
ΔTm at 10 µM [6]: 13.9 °C
ΔT ALK5 [6]: 13.9 °C
inhibition at 0.1 µM [7]: 5%
inhibition at 1 µM [7]: 22%
inhibition at 0.1 µM [8]: 1%
inhibition at 1 µM [8]: -1%
inhibition at 0.1 µM [9]: 6%
inhibition at 1 µM [9]: -6%
inhibition at 0.1 µM [10]: 3%
inhibition at 1 µM [10]: 6%
inhibition at 0.1 µM [11, 13]: 65%
inhibition at 1 µM [11, 13]: 86%
